Values after ≈ are worked out from the molar mass of the structure shown.
Experiments:
CFT073 Δlgt [1] = assay: MIC assay, CFT073 Δlgt, Lgt 4% Ara; format: cell-based, E. coli; details: Escherichia coli
Experimental: (§1) Unless stated otherwise, E. coli cells were grown in Luria-Bertani (LB) medium (0.5% yeast extract, 1% tryptone, 0.5% NaCl) at 37°C. Where indicated, kanamycin (Kan) was added to culture media at a 50-μg/ml final concentration. MIC assays were performed based on Clinical and Laboratory Standards Institute (CLSI) guidelines. For in vitro growth curves, overnight cultures of WT CFT073, CFT073 Δlgt, and CFT073 Δlgt complemented with lgt from E. coli (lgt^Ec) or P. aeruginosa (lgt^Pa) were grown to mid-exponential phase (optical density at 600 nm [OD600] of 0.6) and then diluted to an OD600 of 0.1 to initiate growth curves. At various times, culture aliquots were diluted and plated in dilutions on LB+Kan agar, and CFU were enumerated in duplicates. Growth of MG1655 inducible deletion strains was measured by culturing in the presence of 2-fold dilutions of arabinose (starting arabinose concentrations for CFT073 and MG1655 inducible deletion strains were 4% and 0.8%, respectively). While […] was sufficient for WT growth of MG1655 Δlgt, 4% arabinose was used for CFT073 Δlgt based on comparing its growth to that of WT CFT073 as measured by CFU. OD600 growth measurements were performed using an EnVision 2101 multilabel reader plate reader (PerkinElmer) linked with Echo liquid handler (Labcyte). For time-kill experiments, bacteria were harvested in mid-exponential phase and treated with 12.5 μM G2824, 3.2 μM globomycin, and 1.6 μM vancomycin. CFU were enumerated at various times posttreatment. Bacterial culture medium containing 2% arabinose was used to induce lpp or lppΔK expression from pBad24 plasmids. Bacterial viability at different time points during the treatment was measured by enumerating CFU. Serum killing assays were carried out as previously described ([17]).

CFT073 Δlgt [2] = assay: MIC assay, CFT073 Δlgt, Lgt 0.25% Ara; format: cell-based, E. coli
Experimental: as §1

WT CFT073 = assay: MIC assay, WT CFT073 (Table 1); format: cell-based, E. coli; details: average of two independent experiments, each in duplicates, CLSI
Experimental: as §1

BW25113 cells, lgt gRNA = assay: CRISPRi knockdown sensitization, lgt gRNA; format: cell-based, E. coli; details: 2 μM G2824, 0.05 μM globomycin or 0.016 μM ciprofloxacin; OD600 relative to untreated, versus scr or folA gRNA
Excerpt: (§2) The two-plasmid bacterial CRISPRi system pdCas9-bacteria_GNE and PGNRNA-bacteria_GNE are based on the AddGene plasmids 44249 and 44251 ([73]), respectively. The plasmid was synthesized in smaller DNA fragments (500 bp to 3 kb) (IDT gBlocks) and assembled by Gibson assembly (NEB) according to the manufacturer’s protocols. Plasmids were confirmed by sequencing (ELIM Bio). gRNAs were designed to target the 5′ end of the gene on the nontemplate strand using Benchling CRISPR software ([74]). gRNAs were cloned into PGNRNA-bacteria using Gibson assembly (NEB) according to the manufacturer’s protocols and sequence confirmed (ELIM Bio).
(§3) Bacterial cultures were grown overnight on LB agar supplemented with carbenicillin (50 μg/ml) and chloramphenicol (12.5 μg/ml) to maintain both plasmids, pdCas9-bacteria and PGNRNA-bacteria with each gRNA as appropriate. Cells were scraped from the plate into fresh medium. The OD600 was measured, and the culture was subsequently diluted to an OD600 0.001 in the presence or absence of G2824, globomycin, or ciprofloxacin. Two hundred microliters was transferred to a 96-well plate (Corning) and monitored for growth by measuring the OD600 (EnVision multimode plate reader; PerkinElmer). All treatments were performed in triplicates. The specificity of CRISPRi downregulation was measured using reverse transcriptase quantitative PCR (RT-qPCR).

BW25113 cells, lspA gRNA = assay: CRISPRi knockdown sensitization, lspA gRNA; format: cell-based, E. coli; details: 2 μM G2824, 0.05 μM globomycin or 0.016 μM ciprofloxacin; OD600 relative to untreated, versus scr or folA gRNA
Excerpt: as §2, §3

Lgt = assay: Lgt-dependent diacylglyceryl modification of peptide substrate (MS, SDS-PAGE); format: biochemical, E. coli

`CCn1cc(C(=O)O)c(=O)c2cc(F)c(N3CCNCC3)cc21` [Norfloxacin] showed an MIC (CFT073 Δlgt [1]) of 0.6 µM (≈ 0.192 µg/mL), an MIC (CFT073 Δlgt [2]; Escherichia coli) of 0.2 µM (≈ 0.0639 µg/mL) and an MIC (WT CFT073; Escherichia coli) of 0.4 µM (≈ 0.128 µg/mL).

`Cc1onc(-c2ccccc2)c1C(=O)N[C@@H]1C(=O)N2[C@@H]1SC(C)(C)[C@@H]2C(=O)O` [Oxacillin] was tested, and the MIC (CFT073 Δlgt [1]) was > 100 µM, the MIC (CFT073 Δlgt [2]; Escherichia coli) was 12.5 µM (≈ 5.02 µg/mL) and the MIC (WT CFT073; Escherichia coli) was > 100 µM.

With `CC1(C)S[C@@H]2[C@H](NC(=O)Cc3ccccc3)C(=O)N2[C@H]1C(=O)O` [Penicillin G] the MIC (CFT073 Δlgt [1]) was > 50 µM, the MIC (CFT073 Δlgt [2]; Escherichia coli) was 0.8 µM (≈ 0.268 µg/mL) and the MIC (WT CFT073; Escherichia coli) was > 50 µM.

`CO[C@H]1/C=C/O[C@@]2(C)Oc3c(C)c(O)c4c(O)c(cc(O)c4c3C2=O)NC(=O)/C(C)=C\C=C\[C@H](C)[C@H](O)[C@@H](C)[C@@H](O)[C@@H](C)[C@H](OC(C)=O)[C@@H]1C` [Rifamycin] showed an MIC (CFT073 Δlgt [2]; Escherichia coli) of 0.8 µM (≈ 0.558 µg/mL) and an MIC (WT CFT073; Escherichia coli) of 6.3 µM (≈ 4.4 µg/mL).

Work on `Cc1c(N)nc([C@H](CC(N)=O)NC[C@H](N)C(N)=O)nc1C(=O)N[C@H](C(=O)N[C@H](C)[C@@H](O)[C@H](C)C(=O)N[C@H](C(=O)NCCC1=N[C@@H](c2nc(C(=O)NCCCCN=C(N)N)cs2)CS1)[C@@H](C)O)[C@@H](O[C@@H]1O[C@@H](CO)[C@@H](O)[C@H](O)[C@@H]1O[C@H]1O[C@H](CO)[C@@H](O)[C@H](OC(N)=O)[C@@H]1O)c1cnc[nH]1` [Zeocin] yielded an MIC (CFT073 Δlgt [2]; CFT073 Δlgt, Lgt 0.25% Ara (low Lgt level), average of two independent experiments, each in duplicates, CLSI) of 0.8 µM (≈ 1.14 µg/mL) and an MIC (WT CFT073) of 12.5 µM (≈ 17.8 µg/mL).

`O=C(O)c1cn(C2CC2)c2cc(N3CCNCC3)c(F)cc2c1=O` [ciprofloxacin] was tested, and the “sensitization by decreased lgt expression” value (BW25113 cells, lgt gRNA) was “did not lead to increased sensitivity” and the “sensitization by decreased lspA expression” value (BW25113 cells, lspA gRNA) was “did not lead to increased sensitivity”.

For “MQLNKVLKGLMIALPVMAIAACSSNKN [Pal-IAAC, peptide substrate derived from the Pal lipoprotein]”, the “diacylglyceryl modification by SDS-PAGE” value (Lgt; SDS-PAGE, Coomassie blue) was “is Lgt dependent” and the “diacylglyceryl modification, mass addition” value (Lgt; mass spectrometry, Lgt dependent) was 552 Da.

Reference: PMC8316002, “Inhibition of Escherichia coli Lipoprotein Diacylglyceryl Transferase Is Insensitive to Resistance Caused by Deletion of Braun’s Lipoprotein” (Journal of Bacteriology, 2021)
